Where only a bound is given, the exact number is not on record here.

The target in data set [1] is T1, Human Neuropeptide Y2 Receptor (Homo sapiens, UniProt P49146).
T1 construct: purchased CHEMICON HTS066M
T1 sequence (P49146 1-381): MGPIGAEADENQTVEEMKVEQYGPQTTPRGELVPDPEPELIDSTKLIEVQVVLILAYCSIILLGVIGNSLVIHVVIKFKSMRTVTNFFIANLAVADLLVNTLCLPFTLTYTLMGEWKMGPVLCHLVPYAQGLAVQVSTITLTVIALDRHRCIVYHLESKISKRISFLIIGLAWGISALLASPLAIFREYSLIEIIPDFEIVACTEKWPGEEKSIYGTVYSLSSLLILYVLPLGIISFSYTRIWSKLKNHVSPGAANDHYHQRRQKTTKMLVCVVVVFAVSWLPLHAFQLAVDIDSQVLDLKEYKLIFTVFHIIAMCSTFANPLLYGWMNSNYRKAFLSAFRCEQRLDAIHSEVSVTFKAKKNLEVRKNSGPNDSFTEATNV
In words: Radioligand binding competition assay (RLB). Conditions: Table 3, 125I-PYY(1-36) competition; read-out: Ki. Summed up:
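Competition binding used membranes expressing the receptor (0.5 μg protein/well) in 50 mM HEPES, 5 mM MgCl2, 1 mM CaCl2, pH 7.4 with 0.2% ovalbumin, incubated 2 h at room temperature with shaking. Bound radioligand was collected by filtration onto PEI-soaked GF/C filters and counted; IC50 from nonlinear sigmoidal fits.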

A short description of data set [2]: Solubility determination. Conditions: for Sol6: pH 6; for Sol7: pH 7. Summed up: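 Shake-flask style: 10 mg/ml peptide (TFA salt), 0.1 M sodium diphosphate pH 6.4/7.0, 600 rpm, 2 h, RT; filter; dilute 1 mg/ml in 50% MeCN; RP-UPLC, 0–100% B over 2 min, 50 °C. Solubility = sample/control area ratio. Final pH recorded.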
The target in data set [3] is T2, human NPY2 receptor (hY2R) (Homo sapiens, UniProt P49146).
T2 sequence (P49146 1-381): T1 sequence (P49146 1-381)
In words: HTRF cAMP Gi assay, hY2R. (In general: Time-resolved FRET reads energy transfer from a long-lived donor to a nearby acceptor.)

The target in data set [4] is T3, human NPY5 receptor (hY5R) (Homo sapiens, UniProt Q15761).
T3 sequence (Q15761 1-445): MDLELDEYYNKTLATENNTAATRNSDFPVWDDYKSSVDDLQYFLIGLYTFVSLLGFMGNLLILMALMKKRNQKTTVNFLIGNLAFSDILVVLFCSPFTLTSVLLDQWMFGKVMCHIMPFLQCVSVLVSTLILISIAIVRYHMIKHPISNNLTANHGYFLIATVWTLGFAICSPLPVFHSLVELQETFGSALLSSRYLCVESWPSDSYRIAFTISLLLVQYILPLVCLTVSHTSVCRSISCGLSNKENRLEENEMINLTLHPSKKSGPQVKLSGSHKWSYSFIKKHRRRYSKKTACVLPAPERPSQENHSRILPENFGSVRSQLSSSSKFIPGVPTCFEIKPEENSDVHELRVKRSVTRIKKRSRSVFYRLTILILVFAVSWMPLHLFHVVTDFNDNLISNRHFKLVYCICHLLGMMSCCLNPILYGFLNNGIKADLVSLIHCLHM
In words: HTRF cAMP Gi assay, hY5R.

The term Ki denotes the equilibrium dissociation constant of an inhibitor or competing ligand from its target. For orientation: EC50 means the concentration that produces a half-maximal response. A high value points to weaker potency. As to `CC(C)CC(=O)N[C@@H](C)C(=O)N1CCC[C@H]1C(=O)N[C@@H](CCC(=O)O)C(=O)N[C@@H](CCCCNC(=O)CCCCCNC(=O)CC[C@H](NC(=O)CCCCCCCCCCCCCCCCC(=O)O)C(=O)O)C(=O)N1CCC[C@H]1C(=O)N[C@@H](CCC(=O)O)C(=O)N[C@@H](CCC(=O)O)C(=O)N[C@@H](CCC(=O)O)C(=O)N[C@@H](C)C(=O)N[C@H](C(=O)N1CCC[C@H]1C(=O)N[C@@H](CCC(=O)O)C(=O)N[C@@H](CCC(=O)O)C(=O)N[C@@H](CC(C)C)C(=O)N[C@@H](CCC(N)=O)C(=O)N[C@@H](CCCNC(=N)N)C(=O)N[C@@H](Cc1ccc(O)cc1)C(=O)N[C@@H](Cc1ccc(O)cc1)C(=O)N[C@H](C(=O)N[C@@H](CO)C(=O)N[C@@H](CC(C)C)C(=O)N[C@@H](CCCNC(=N)N)C(=O)N[C@@H](Cc1c[nH]cn1)C(=O)N[C@@H](Cc1ccc(O)cc1)C(=O)N[C@@H](Cc1ccc(O)cc1)C(=O)N[C@@H](CC(N)=O)C(=O)N[C@@H](Cc1c[nH]c2ccccc12)C(=O)N[C@@H](CC(C)C)C(=O)N[C@H](C(=O)N[C@@H](CCCNC(=N)N)C(=O)N[C@@H](CCC(N)=O)C(=O)N[C@@H](CCCNC(=N)N)C(=O)N[C@@H](Cc1ccc(O)cc1)C(N)=O)[C@@H](C)O)C(C)C)[C@@H](C)O` [Compound 146, N{alpha-4}-(3-methylbutanoyl)-N{epsilon-7}-(6-[(4S)-4-carboxy-4-(17-carboxyheptadecanamido)butanamido]hexanoyl)-[4A,7K,9E,11E,13T,18Q,22V,28Y,30W,31L]-hPYY(4-36)], the Ki in data set [1] amounted to 8.93 nM. Besides, the “Sol6” value in data set [2] is 9.8 mg/mL. Also, the “Sol7” value in data set [2] was determined as 9.6 mg/mL. The EC50 in data set [3] is 0.13 nM; in data set [4], more than 5000 nM.
With `CC(C)CC(=O)N[C@@H](C)C(=O)N1CCC[C@H]1C(=O)N[C@@H](CCC(=O)O)C(=O)N[C@@H](CCCCNC(=O)CCCCCNC(=O)CC[C@H](NC(=O)CCCCCCCCCCCCCCCCC(=O)O)C(=O)O)C(=O)N1CCC[C@H]1C(=O)N1CCC[C@H]1C(=O)N[C@@H](CCC(=O)O)C(=O)N[C@@H](CC(=O)O)C(=O)N[C@@H](C)C(=O)N[C@@H](CO)C(=O)N1CCC[C@H]1C(=O)N[C@@H](CCC(=O)O)C(=O)N[C@@H](CCC(=O)O)C(=O)N[C@@H](CC(C)C)C(=O)N[C@@H](CCC(N)=O)C(=O)N[C@@H](CCCNC(=N)N)C(=O)N[C@@H](Cc1ccc(O)cc1)C(=O)N[C@@H](Cc1ccc(O)cc1)C(=O)N[C@H](C(=O)N[C@@H](CO)C(=O)N[C@@H](CC(C)C)C(=O)N[C@@H](CCCNC(=N)N)C(=O)N[C@@H](Cc1c[nH]cn1)C(=O)N[C@@H](Cc1ccc(O)cc1)C(=O)N[C@@H](Cc1ccc(O)cc1)C(=O)N[C@@H](CC(N)=O)C(=O)N[C@@H](Cc1c[nH]c2ccccc12)C(=O)N[C@@H](CC(C)C)C(=O)N[C@H](C(=O)N[C@@H](CCCNC(=N)N)C(=O)N[C@@H](CCC(N)=O)C(=O)N[C@@H](CCCNC(=N)N)C(=O)N[C@@H](Cc1ccc(O)cc1)C(N)=O)[C@@H](C)O)C(C)C` [Compound 14, N{alpha-4}-(3-methylbutanoyl)-N{epsilon-7}-(6-[(4S)-4-carboxy-4-(17-carboxyheptadecanamido)butanamido]hexanoyl)-[4A,7K,9P,18Q,22V,28Y,30W,31L]-hPYY(4-36)], the Ki in data set [1] turned out to be 1.28 nM. Moreover, in data set [2], the “Sol6” value is 9.3 mg/mL and the “Sol7” value was 8.4 mg/mL. In addition, the EC50 in data set [3] worked out at 0.086 nM. The EC50 in data set [4] is more than 5000 nM.

Source of the values: patent US12391737B2, “Soluble NPY2 receptor agonists” (Boehringer Ingelheim International GmbH, priority 2020, dated 2025).
